Test results from PMC10010335, “Depletion of Mannose Receptor–Positive Tumor-associated Macrophages via a Peptide-targeted Star-shaped Polyglutamate Inhibits Breast Cancer Progression in Mice” (Cancer Research Communications, 2022).
Where a SMILES comes first, the peptide text is derived from it. Where no end group is shown, it is not given here. The star is where a group is joined. 5FAM = O=C1OC2(c3ccc(O)cc3Oc3cc(O)ccc32)c2ccc(C(=O)*)cc21; Ahx = NCCCCCC(=O)O

Assays:
[1] = tested on: orthotopic TNBC (4T1 cells); experiment: OximUNO treatment of orthotopic TNBC; format: in vivo, Balb/c mice
Protocol: Two tumor models were used for treatment studies: the orthotopic TNBC model where 5 × 10^4 4T1 cells in 50 μL of PBS were injected subcutaneously into fourth mammary fat pad; and the experimental metastasis of TNBC model where 2 × 10^5 4T1-GFP cells in 100 μL of PBS were intravenously injected.
A total of 5 × 10^4 4T1 cells in 50 μL of PBS were subcutaneously injected into the fourth mammary fat pad of 8–12 weeks old female Balb/c mice. On day 7, mice were sorted into four groups by tumor volume measured using a digital caliper (Mitutoyo). Tumor volume was calculated on the basis of the formula (W^2 × L)/2, where W is the tumor's width and L is the tumor's length. […] Mouse bodyweight and tumor volumes were monitored every other day. […] CD206 was detected using rat anti-mouse CD206 (dilution 1/200), CD8 using rat anti-mouse CD8 (dilution 1/75 BioLegend, catalog no. 100701), FOXP3 using rat anti-mouse FOXP3 (dilution 1/75, BioLegend, catalog no. 126401) as primary antibodies, Alexa Fluor goat anti-rat 647 (dilution 1/300 for CD206 and 1/200 for CD8, FOXP3,) was used as a secondary antibody for all markers. […]
For H&E staining, 2-μm–thick sections were cut from paraffin-embedded blocks. […] Images were analyzed using the QuPath program (version 0.1.2; ref. [52]). […] Stained heart sections were also scanned using a slide scanner and analysed with the QuPath program. […]

[2] = tested on: primary human M2-resembling (MCSF + IL4 polarized) macrophages; experiment: In vitro cytotoxicity (MTT), M2-resembling macrophages; format: cell-based; conditions: 15-minute incubation at 33 and 100 μmol/L DOX, washed, 48 hours, N = 3 wells
Protocol: Human peripheral blood mononuclear cells (PBMC) were purified from human blood buffy coat using Ficoll Paque Plus (GE Healthcare, catalog no. 17-1440-02) reagent and CD14^+ microbeads (MACS Miltenyi Biotec, catalog no. 130-050-201) as described previously ([42]). A total of 1.2 × 10^5 cells in 50 μL of RPMI1640 medium were seeded on an FBS-coated 96-well plate. To obtain optimal macrophage attachment and M2 resembling, 50 μL of IL4 (50 ng/mL, BioLegend, catalog no. 574002) and MCSF (50 ng/mL, BioLegend, catalog no. 574802) mixture was added to the wells. The medium was replenished by substituting half of the medium with fresh medium containing IL4 and MCSF every other day for 6 days. To obtain M1-resembling macrophages, monocytes were incubated with M-CSF (50 ng/mL) for 6 days, replenishing every other day with fresh medium containing MCSF and on day 6, 50 μL of MCSF, lipopolysaccharide (LPS, 100 ng/mL, Sigma-Aldrich, catalog no. L4391) and IFNγ (20 ng/mL, BioLegend, catalog no. 570202) was added and incubated overnight. […] After incubation, wells were washed, fresh medium added, and cells incubated for 48 hours at 37°C. […] Absorbance was read at 580 nm using a plate reader (Tecan Sunrise) and the corresponding Magellan 7 program. […] After that, cells were washed 2× with 200 μL of RB and read using BD Accuri 6 plus (BD Biosciences). […]

[3] = cited from earlier work
Excerpt: On the basis of these ante ...

[4] = same mice strain, sex, age; cited from earlier work

COc1cccc2c1C(=O)c1c(O)c3c(c(O)c1C2=O)C[C@@](O)(C(=O)CO)C[C@@H]3O[C@H]1C[C@H](N)[C@H](O)[C@H](C)O1 [DOX, doxorubicin]
CD206 expression in primary tumor ([1]; IF, compared with PBS): upregulated CD206 expression | mouse bodyweight ([1]; i.p., 2 mg/kg of DOX every other day, nine injections): significant decrease in mouse bodyweight | toxicity (MTT cell viability) [2]: only displayed toxicity in MCSF + IL4 polarized macrophages at 100 μmol/L

C[C@H](NC(=O)CNC(=O)[C@@H]1CCCN1C(=O)[C@H](CO)NC(=O)[C@H](CS)NC(=O)CCCCCNC(=O)c1ccc2c(c1)C(=O)OC21c2ccc(O)cc2Oc2cc(O)ccc21)C(=O)N[C@@H](CCCCN)C(=O)O [FAM-mUNO] ({5FAM-Ahx}-CSPGAK-OH)
degradation of FAM coupled through an amide bond, in serum [3]: negligible degradation

CSPGAK-OH [mUNO]
half-life, intraperitoneal versus intravenous administration [4]: substantially longer half-life
